This note sets out measurements from patent EP4755892A1, “KINESIN KIF18A INHIBITOR AND USE THEREOF” (Shanghai Apeiron Therapeutics Company Limited, priority 2023, dated 2025).

Like-named read-outs stand apart in the source and are kept apart here. A value given as a limit tells only on which side of the number the result lay.

For test [1], the target named is T1, Human KIF18A (amino acid sequence 1-417) (Homo sapiens, UniProt Q8NI77).
T1 construct: purchased Viva Biotech (Shanghai) Ltd
T1 sequence (Q8NI77 1-417): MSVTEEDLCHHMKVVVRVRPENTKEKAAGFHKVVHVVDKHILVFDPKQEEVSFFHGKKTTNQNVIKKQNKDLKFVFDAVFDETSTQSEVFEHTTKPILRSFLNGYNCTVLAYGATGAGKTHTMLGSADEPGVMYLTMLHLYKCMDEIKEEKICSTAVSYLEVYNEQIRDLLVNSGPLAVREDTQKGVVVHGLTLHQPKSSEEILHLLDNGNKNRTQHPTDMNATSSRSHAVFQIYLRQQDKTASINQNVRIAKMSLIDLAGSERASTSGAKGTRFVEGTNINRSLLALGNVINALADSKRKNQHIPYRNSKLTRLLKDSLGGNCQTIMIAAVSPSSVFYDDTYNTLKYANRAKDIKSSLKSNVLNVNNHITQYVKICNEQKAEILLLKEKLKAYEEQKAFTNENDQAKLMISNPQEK
Kind of test: Enzymatic Activity Test (ADP-Glo, microtubule-stimulated KIF18A ATPase). It is filed as biochemical. To be noted: 60 µg/mL microtubules, 25 µM ATP, 2.5 nM KIF18A protein, 120 min at ambient temperature, chemiluminescence; read-out: KIF 18A IC50. The protocol: Assay 1: Enzymatic Activity Test
Materials: Human KIF18A (amino acid sequence 1-417) was purchased from Viva Biotech (Shanghai) Ltd.; the ADP-Glo™ protein kinase kit was acquired from Promega, USA; tubulin was sourced from Cytoskeleton, USA; and the 384-well assay plate and Envision multifunctional microplate reader were obtained from PerkinElmer, USA.
Enzymatic Activity Test: The compound powder was dissolved in DMSO to prepare a stock solution of 10 mM. Then gradient dilution was performed for the compounds in the microplate to achieve a final concentration of 0-10 µM. Then, 2.5 µL each of tubulin, compound, ATP, and KIF18A protein were added to the microplate in sequence for reaction at ambient temperature for 120 min. The final concentrations in the enzyme reaction were 60 µg/mL for microtubules, 25 µM for ATP, and 2.5 nM for KIF18A protein. After the enzyme reaction, 10 µL of ADP-GLO reaction reagent was added to each well and incubated at room temperature for 30 min. After that, 20 µL of detection reagent was added to each well and incubated at room temperature for 30 min in the dark. Finally, chemiluminescence detection was performed using the PerkinElmer Envision.

The subject of the next test is OVCAR3 cells. Kind of test: Cell Proliferation Activity Test (CyQUANT Direct), OVCAR3. Type of test: cell-based. Conditions: compound 0-10 µM, 3 days, 0.2% DMSO, CyQUANT fluorescence, read-out: OVCAR-3 _IC50_nM. The protocol:
Assay 2: Cell Proliferation Activity Test
Materials and Cells: OVCAR3 cells were purchased from Nanjing Cobioer Biosciences Co., Ltd. RPMI-1640 medium, fetal bovine serum, and the CyQUANT Direct Cell Proliferation Assay kit were purchased from Thermo Fisher Scientific, USA; 96-well cell culture plates were sourced from Coming, USA.
Cell Culture: OVCAR3 cells were cultured with RPMI-1640 medium containing 10% fetal bovine serum and incubated in a 5% CO2 incubator at 37°C. Only cells in the logarithmic growth phase could be used for the test.
Cell Proliferation Activity Test:
OVCAR3 cells were inoculated into a 96-well cell culture plate at 90 µL per well and incubated overnight in a 5% CO2 incubator at 37°C. The compound powder was dissolved in DMSO to prepare a stock solution of 10 mM. Then gradient dilution was performed for the compounds in the microplate to achieve a final concentration of 0-10 µM. 10 µL of cell culture medium containing compounds was added to each well to make the final DMSO content 0.2%. The cell plates were incubated in a 5% CO2 incubator at 37°C for 3 days. 100 µL of CyQUANT detection reagent was added to each well, reacted at 37°C for 60 min, and fluorescence detection was performed using the PerkinElmer Envision.

The test system of a further test is HT29 cells. Kind of test: CyQuant Cell Proliferation Activity Test, HT29. It is filed as cell-based. Conditions: HT29 cells 2000 per well, initial concentration 3000 nM, 3-fold dilution, 3 days, 0.2% DMSO, read-out: HT29_IC50 _nM. The protocol: Assay 3: CyQuant Cell Proliferation Activity Test
Materials and Cells: HT29 cells were purchased from Nanjing Cobioer Biosciences Co., Ltd.; RPMI-1640 medium, fetal bovine serum, Trypsin-EDTA (0.25%), 96-well plates, and CyQuant reagents were purchased from ThermoFisher (USA); DMSO was purchased from SIGMA (USA).
Cell Culture: HT29 cells were cultured with RPMI-1640 containing 10% fetal bovine serum under the condition of 37°C and 5% CO2. Only cells in the logarithmic growth phase could be used for the test.
Cell Proliferation Activity Test: CyQuant reagent was used to detect the proliferation inhibitory activity of compounds on HT29 cells. The cell density was adjusted, and 100 µL per well was inoculated into a 96-well plate (HT29 at 2000 cells per well), then incubated overnight at 37°C and 5% CO2. Add compounds of various target concentrations (initial concentration of 3000 nM, 3-fold dilution, 9 concentration gradients), and make the DMSO content 0.2%. The cell plate was incubated at 37°C in 5% CO2 for 3 days. CyQuant reagent was added and incubated for 1 h. The plates were read by Envision, and IC50 was calculated using XLFIT.

As to `Cc1cc2nc(n1)N1CCCC(C1)C(=O)NCC1CCN(CC1)c1cc(NS(=O)(=O)CCO)ccc1C(=O)N2` (stereo not shown) [Example 27, N-(2^6-methyl-4,9-dioxo-3,8-diaza-2(2,4)-pyrimidin-1(1,3),6(1,4)-dipiperidin-5(1,2) -benzeneheterocyclononane-5^4-yl)-2-hydroxyethane-1-sulfonamide], the IC50 in test [1] was 265 nM; with OVCAR3 cells (Homo sapiens, OVCAR-3, 72 h), 1480 nM; with HT29 cells (Homo sapiens, HT-29, 72 h) it was above 3000 nM.

`Cc1cc2nc(n1)N1CCOC(C=CCC3CCN(CC3)c3cc(NS(=O)(=O)CCO)ccc3C(=O)N2)C1` (stereo not shown) [Example 25, 2-Hydroxy-N-((1^2S)-2^6-methyl-4-oxo-3-aza-1(4,2)-morpholin-2(2,4)-pyrimidin-6(1,4)-piperidin-5(1,2)-benzeneheterocyclonon-8-en-5^4-yl)ethane-1-sulfonamide]: the IC50 in test [1] is 13 nM; in the test with OVCAR3 cells (Homo sapiens, OVCAR-3, 72 h) it was 8.5 nM; with HT29 cells (Homo sapiens, HT-29, 72 h), 10.9 nM.

Take `O=C1Nc2cccc(c2)S(=O)(=O)NCCCCCC2CCN(CC2)c2cc(NS(=O)(=O)CCO)ccc21` [Example 13, N-(6,6-dioxo-3-oxo-6-thia-4,7-diaza-1(1,4)-piperidin-2(1,2),5(1,3)-diphenylheterocyclododecane-2^5-yl)-2-hydroxy-1-ethanesulfonamide]: the IC50 in test [1] is 23 nM; in the test on OVCAR3 cells (Homo sapiens, OVCAR-3, 72 h) it was 77 nM; with HT29 cells (Homo sapiens, HT-29, 72 h) it was 136 nM.

For `Cc1cc2nc(n1)N1CCCC(C=CCCC3CCN(CC3)c3cc(NS(=O)(=O)CCO)ccc3C(=O)N2)C1` (stereo not shown) [Example 6, 2-Hydroxy-N-(2^1-methyl-4-oxo-3-aza-2(2,4)-pyrimidin-1(1,3),6(1,4)-dipiperidin-5 (1,2)-benzenecyclodec-9-en-5^4-yl)ethane-1-sulfonamide], the IC50 came to 89 nM in test [1]; 52 nM in the test with OVCAR3 cells (Homo sapiens, OVCAR-3, 72 h); 64 nM with HT29 cells (Homo sapiens, HT-29, 72 h).

For the compound `Cc1cc2nc(n1)OCCOCCC1CCN(CC1)c1cc(NS(=O)(=O)CCO)ccc1C(=O)N2` [Example 29, 2-Hydroxy-N-(5^6-methyl-3-oxo-6,9-dioxa-4-aza-5(4,2)-pyrimidin-1(1,4)-piperidin-2(1,2)-benzeneheterocycloundecane-2^5)ethane-1-sulfonamide], in test [1], the IC50 stood at 141 nM.

Regarding `Cc1cc2nc(n1)N1CCC(F)(F)C(CCCC3CCN(CC3)c3cc(NS(=O)(=O)CCO)ccc3C(=O)N2)C1` (stereo not shown) [Example 23A, N-((1^3S)-1^4,1^4-difluoro-2^6-methyl-4-oxo-3-aza-2(2,4)-pyrimidin-1(1,3),6(1,4)-dipiperidin-5(1,2)-benzeneheterocyclononane-5^4-yl)-2-hydroxyethane-1-sulfonamide], the IC50 in test [1] was 522 nM; in the test with OVCAR3 cells, 662 nM; in the test on HT29 cells, 688 nM.

In the case of `Cc1cc2nc(n1)N1CCCC(C=CCC3CCCN(C3)c3cc(NS(=O)(=O)CCO)ccc3C(=O)N2)C1` (stereo not shown) [Example 10, 2-Hydroxy-N-(2^6-methyl-4-oxo-3-aza-2(2,4)-pyrimidin-1,6(1,3)-dipiperidin-5(1,2) -benzeneheterocyclononane-8-en-5^4-yl)ethane-1-sulfonamide], the IC50 in test [1] was 200 nM; in the test with OVCAR3 cells (Homo sapiens, OVCAR-3, 72 h), 136 nM; with HT29 cells (Homo sapiens, HT-29, 72 h), 172 nM.

For the compound `Cc1cc2nc(n1)N1CCC(F)(F)C(C=CCC3CCN(CC3)c3cc(NS(=O)(=O)CCO)ccc3C(=O)N2)C1` (stereo not shown) [Example 18B, N-(1^3R,E)-1^4,1^4-difluoro-2^6-methyl-4-oxo-3-aza-2(2,4)-pyrimidin-1(1,3),6(1,4)-dip iperidin-5(1,2)-benzeneheterocyclononane-8-en-5^4-yl)-2-hydroxyethane-1-sulfonamide], the IC50 in test [1] came out at 46 nM; with OVCAR3 cells it was 12 nM; in the test on HT29 cells it was 16 nM.

`Cc1cc2nc(n1)N1CCCC(C=CCC3CCN(CC3)c3cc(NS(=O)(=O)CCO)cnc3C(=O)N2)C1` (stereo not shown) [Example 2, (Z)-2-Hydroxy-N-(2^6-methyl-4-oxo-3-aza-2(2,4)-pyrimidin-5(2,3)-pyridin-1(1,3),6 (1,4)-dipiperidinylcyclononane-8-en-55-yl)ethane-1-sulfonamide]: the IC50 in test [1] turned out to be 8 nM; in the test with OVCAR3 cells (Homo sapiens, OVCAR-3, 72 h), 74 nM; in the test on HT29 cells (Homo sapiens, HT-29, 72 h), 178 nM.

Take `Cc1cc2nc(n1)N1CCCC(C=CC3CCCN(C3)c3cc(NS(=O)(=O)CCO)ccc3C(=O)N2)C1` (stereo not shown) [Example 8, (Z)-2-hydroxy-N-(1^6-methyl-7-oxo-8-aza-1(2,4)-pyrimidin-2(1,3),5(3,1)-dipiperidin-6(1,2)-benzeneheterocyclooct-3-en-6^5-yl)ethane-1-sulfonamide]: the IC50 in test [1] is 2300 nM; in the test on OVCAR3 cells (Homo sapiens, OVCAR-3, 72 h), above 3000 nM.

In the case of `Cc1cc2nc(n1)N1CCCC(COCC3CCN(CC3)c3cc(NS(=O)(=O)CCO)ccc3C(=O)N2)C1` (stereo not shown) [Example 28B, 2-Hydroxy-N-((1^3S)-2^6-methyl-4-oxo-8-oxa-3-aza-2(2,4)-pyrimidin-1(1,3),6(1,4)-dipiperidin-5(1,2)-benzeneheterocyclononane-5^4-yl)ethane-1-sulfonamide], the IC50 in test [1] came out at 743 nM.

Turning to `Cc1cc2nc(n1)N1CCOC(CCCC3CCN(CC3)c3cc(NS(=O)(=O)CCO)ccc3C(=O)N2)C1` (stereo not shown) [Example 26, 2-Hydroxy-N-((1^2S)-2^6-methyl-4-oxo-3-aza-1(4,2)-morpholin-2(2,4)-pyrimidin-6(1,4)-piperidin-5(1,2)-benzeneheterocyclononane-5^4-yl)ethane-1-sulfonamide], in test [1], the IC50 turned out to be 15 nM.

Regarding `Cc1cc2nc(n1)N1CCCC(CCC3CCCN(C3)c3cc(NS(=O)(=O)CCO)ccc3C(=O)N2)C1` (stereo not shown) [Example 9, 2-Hydroxy-N-(1^6-methyl-7-oxo-8-aza-1(2,4)-pyrimidin-2(1,3),5(3,1)-dipiperidin-6 (1,2)-benzeneheterocyclooctan-6^5-yl)ethane-1-sulfonamide], the IC50 in test [1] came out at 293 nM; in the test on OVCAR3 cells (Homo sapiens, OVCAR-3, 72 h) it was 548 nM.

For the compound `Cc1cc2nc(n1)N1CCCC(CCCC3CCCN(C3)c3cc(NS(=O)(=O)CCO)ccc3C(=O)N2)C1` (stereo not shown) [Example 11, 2-Hydroxy-N-(2^6-methyl-4-oxo-3-aza-2(2,4)-pyrimidin-1,6(1,3)-dipiperidin-5(1,2) -benzoylcyclononyl-5^4-yl)ethane-1-sulfonamide], the IC50 in test [1] worked out at 233 nM; in the test on OVCAR3 cells (Homo sapiens, OVCAR-3, 72 h), 150 nM.

On to `Cc1cc2nc(n1)N1CCCC(COCC3CCN(CC3)c3cc(NS(=O)(=O)CCO)ccc3C(=O)N2)C1` (stereo not shown) [Example 28A, 2-Hydroxy-N-((1^3R)-2^6-methyl-4-oxo-8-oxa-3-aza-2(2,4)-pyrimidin-1(1,3),6(1,4)-dipiperidin-5(1,2)-benzeneheterocyclononane-5^4-yl)ethane-1-sulfonamide], for which the IC50 in test [1] was 178 nM.
